{"source": "patent US20260240832A1", "about": "“USE OF NITROXOLINE COMPOUND IN ENHANCING EFFECT OF ANTIBACTERIAL AGENT” (Jiangsu Yahong Meditech Co., Ltd., priority 2022, published 2026)", "system": "carbapenem-resistant Acinetobacter baumannii", "test": "Chessboard microbroth dilution MIC/FIC, compound 1 in combination with meropenem", "format": "cell-based", "settings": "for MIC: Acinetobacter baumannii; for Compound 1 MIC in combination: with meropenem; for Meropenem MIC in combination: with compound 1", "source_text": "This experiment is designed to determine the minimum inhibitory concentration (MIC) of compound 1 in combination with meropenem against Acinetobacter baumannii (a strain resistant to carbapenem antibiotics) and to calculate the fractional inhibitory concentration (FIC) index.\nTest bacteria: A total of 9 strains of Acinetobacter baumannii, all of which are resistant to carbapenem antibiotics (e.g., meropenem), are clinically isolated strains, and are provided by Shanghai Junji Medical Laboratory Co., Ltd.\nAccording to the recommendation of the Clinical and Laboratory Standards Institute (CLSI), the microbroth dilution method designed by the chessboard method was used to determine the minimum inhibitory concentration (MIC) of compound 1 in combination with meropenem against the above strains, and the fractional inhibitory concentration (FIC) index was calculated.\nCompound 1 was dissolved in dimethyl sulfoxide to obtain a stock solution I with a concentration of 1280 mg/L. The stock solution I was diluted to 512 mg/L with sterile water to obtain a gradient dilution first tube solution I. The gradient dilution first tube solution I was subjected to 1:1 gradient dilution with sterile water to obtain a working solution I with a gradient range of 512 to 0.25 mg/L.\nMeropenem was dissolved in sterile water to obtain a stock solution II with a concentration of 5120 mg/L. The stock solution II was diluted to 1024 mg/L with sterile water to obtain a gradient dilution first tube solution II. The gradient dilution first tube solution II was subjected to 1:1 gradient dilution with sterile water to obtain a working solution II with a gradient range of 1024 to 0.5 mg/L.\n50 μL of solution was taken from each tube of working solution I, and added to the drug sensitivity plate row by row starting from the second well of each row (in each row, the concentration of compound 1 increased from the second well to the last well). 50 μL of solution was taken from each tube of working solution II, and added to the drug sensitivity plate column by column starting from the second well of each column (in each column, the concentration of meropenem increased from the second well to the last well). As a result, a chessboard cross with different concentrations of the two drugs was formed (wherein, there was neither compound 1 nor meropenem in the intersection well of the first row and the first column; the wells of the first row except the intersection well only contained compound 1, and the wells of the first column except the intersection well only contained meropenem; except for the above wells, the remaining wells contained […] and meropenem).\nAccording to the above process, the volume of the drug solution in each well containing only one drug of the drug sensitivity plate was 50 μL, thus 50 μL of sterile water was added to each well. 100 μL of sterile water was added to the intersection well of the first row and the first column. After that, 100 μL of bacterial solution (formulated according to step (3)) was added to all the wells of the drug sensitivity plate and mixed.\n(2) The culture medium of the bacterial solution: Cation-Adjusted Mueller-Hinton Broth (CAMHB), a product of BBL, USA, batch number 9015952.\n(3) Formulation method of bacterial solution: According to the direct colony suspension method, the test bacteria cultured overnight were prepared into a 0.5 McFarland turbidity tube using physiological saline. Then, the resulting solution was dilute 100 times with the above culture medium. 100 μL of the resulting bacterial solution was mixed well with the solution (100 μL) in each well of the drug sensitivity plate, and the final inoculation amount was 10^5 CFU/mL.\n(4) Culture conditions: Culturing at 35±2° C. for 20 hours in air.\n(1) The experimental results were determined according to the standard of CLSI 2019 M100 29th edition. […]", "key": {"[1]": {"settings": "strain 18-J11-001, compound 1 + meropenem"}, "[2]": {"settings": "strain 18-J11-002, compound 1 + meropenem"}, "[3]": {"settings": "strain 18-J11-034, compound 1 + meropenem"}, "[4]": {"settings": "strain 18-J11-097, compound 1 + meropenem"}, "[5]": {"settings": "strain 18-J15-030, compound 1 + meropenem"}, "[6]": {"settings": "strain 18-J21-095, compound 1 + meropenem"}, "[7]": {"settings": "strain 18-J24-015, compound 1 + meropenem"}, "[8]": {"settings": "strain 18-J40-021, compound 1 + meropenem"}, "[9]": {"settings": "strain 18-J51-052, compound 1 + meropenem"}}, "note": "Read-outs that look alike come from different tables or passages of the source.", "data": [{"smiles": "O=[N+]([O-])c1c(Br)c(Cl)c2cccnc2c1O", "note": "[Compound 1, 6-bromo-5-chloro-7-nitroquinolin-8-ol]", "values": [{"measurement": "MIC", "setting": "strain 18-J11-001, read-out: Compound 1 MIC alone", "value": 8, "unit": "µg/mL"}, {"measurement": "MIC", "setting": "strain 18-J11-002, read-out: Compound 1 MIC alone", "value": 4, "unit": "µg/mL"}, {"measurement": "MIC", "setting": "strain 18-J11-034, read-out: Compound 1 MIC alone", "value": 4, "unit": "µg/mL"}, {"measurement": "MIC", "setting": "strain 18-J11-097, read-out: Compound 1 MIC alone", "value": 8, "unit": "µg/mL"}, {"measurement": "MIC", "setting": "strain 18-J15-030, read-out: Compound 1 MIC alone", "value": 16, "unit": "µg/mL"}, {"measurement": "MIC", "setting": "strain 18-J21-095, read-out: Compound 1 MIC alone", "value": 8, "unit": "µg/mL"}, {"measurement": "MIC", "setting": "strain 18-J24-015, read-out: Compound 1 MIC alone", "value": 8, "unit": "µg/mL"}, {"measurement": "MIC", "setting": "strain 18-J40-021, read-out: Compound 1 MIC alone", "value": 8, "unit": "µg/mL"}, {"measurement": "MIC", "setting": "strain 18-J51-052, read-out: Compound 1 MIC alone", "value": 4, "unit": "µg/mL"}, {"measurement": "change of the MIC of meropenem by the combination", "setting": "compound 1 + meropenem", "value": "significantly reduce"}, {"measurement": "effect of the combination (summary of Table 1)", "setting": "compound 1 + meropenem, strains resistant to carbapenem antibiotics", "value": "additive effect (0.5<FIC≤1.0 indicates additive effect)"}, {"measurement": "FIC index", "setting": "[1]", "value": 0.750}, {"measurement": "Results", "setting": "[1]", "value": "Additive"}, {"measurement": "Compound 1 MIC in combination", "setting": "strain 18-J11-001", "value": 4, "unit": "µg/mL"}, {"measurement": "FIC index", "setting": "[2]", "value": 0.750}, {"measurement": "Results", "setting": "[2]", "value": "Additive"}, {"measurement": "Compound 1 MIC in combination", "setting": "strain 18-J11-002", "value": 2, "unit": "µg/mL"}, {"measurement": "FIC index", "setting": "[3]", "value": 0.750}, {"measurement": "Results", "setting": "[3]", "value": "Additive"}, {"measurement": "Compound 1 MIC in combination", "setting": "strain 18-J11-034", "value": 2, "unit": "µg/mL"}, {"measurement": "FIC index", "setting": "[4]", "value": 0.750}, {"measurement": "Results", "setting": "[4]", "value": "Additive"}, {"measurement": "Compound 1 MIC in combination", "setting": "strain 18-J11-097", "value": 4, "unit": "µg/mL"}, {"measurement": "FIC index", "setting": "[5]", "value": 0.625}, {"measurement": "Results", "setting": "[5]", "value": "Additive"}, {"measurement": "Compound 1 MIC in combination", "setting": "strain 18-J15-030", "value": 8, "unit": "µg/mL"}, {"measurement": "FIC index", "setting": "[6]", "value": 0.750}, {"measurement": "Results", "setting": "[6]", "value": "Additive"}, {"measurement": "Compound 1 MIC in combination", "setting": "strain 18-J21-095", "value": 4, "unit": "µg/mL"}, {"measurement": "FIC index", "setting": "[7]", "value": 0.750}, {"measurement": "Results", "setting": "[7]", "value": "Additive"}, {"measurement": "Compound 1 MIC in combination", "setting": "strain 18-J24-015", "value": 2, "unit": "µg/mL"}, {"measurement": "FIC index", "setting": "[8]", "value": 0.750}, {"measurement": "Results", "setting": "[8]", "value": "Additive"}, {"measurement": "Compound 1 MIC in combination", "setting": "strain 18-J40-021", "value": 4, "unit": "µg/mL"}, {"measurement": "FIC index", "setting": "[9]", "value": 0.625}, {"measurement": "Results", "setting": "[9]", "value": "Additive"}, {"measurement": "Compound 1 MIC in combination", "setting": "strain 18-J51-052", "value": 2, "unit": "µg/mL"}]}, {"smiles": "C[C@@H](O)[C@H]1C(=O)N2C(C(=O)O)=C(S[C@@H]3CN[C@H](C(=O)N(C)C)C3)[C@H](C)[C@H]12", "note": "[Meropenem, reference compound]", "values": [{"measurement": "MIC", "setting": "strain 18-J11-001, read-out: Meropenem MIC alone", "value": 32, "unit": "µg/mL"}, {"measurement": "MIC", "setting": "strain 18-J11-002, read-out: Meropenem MIC alone", "value": 64, "unit": "µg/mL"}, {"measurement": "MIC", "setting": "strain 18-J11-034, read-out: Meropenem MIC alone", "value": 64, "unit": "µg/mL"}, {"measurement": "MIC", "setting": "strain 18-J11-097, read-out: Meropenem MIC alone", "value": 64, "unit": "µg/mL"}, {"measurement": "MIC", "setting": "strain 18-J15-030, read-out: Meropenem MIC alone", "value": 64, "unit": "µg/mL"}, {"measurement": "MIC", "setting": "strain 18-J21-095, read-out: Meropenem MIC alone", "value": 64, "unit": "µg/mL"}, {"measurement": "MIC", "setting": "strain 18-J24-015, read-out: Meropenem MIC alone", "value": 64, "unit": "µg/mL"}, {"measurement": "MIC", "setting": "strain 18-J40-021, read-out: Meropenem MIC alone", "value": 64, "unit": "µg/mL"}, {"measurement": "MIC", "setting": "strain 18-J51-052, read-out: Meropenem MIC alone", "value": 32, "unit": "µg/mL"}, {"measurement": "Meropenem MIC in combination", "setting": "strain 18-J11-001", "value": 8, "unit": "µg/mL"}, {"measurement": "Meropenem MIC in combination", "setting": "strain 18-J11-002", "value": 16, "unit": "µg/mL"}, {"measurement": "Meropenem MIC in combination", "setting": "strain 18-J11-034", "value": 16, "unit": "µg/mL"}, {"measurement": "Meropenem MIC in combination", "setting": "strain 18-J11-097", "value": 16, "unit": "µg/mL"}, {"measurement": "Meropenem MIC in combination", "setting": "strain 18-J15-030", "value": 8, "unit": "µg/mL"}, {"measurement": "Meropenem MIC in combination", "setting": "strain 18-J21-095", "value": 16, "unit": "µg/mL"}, {"measurement": "Meropenem MIC in combination", "setting": "strain 18-J24-015", "value": 32, "unit": "µg/mL"}, {"measurement": "Meropenem MIC in combination", "setting": "strain 18-J40-021", "value": 16, "unit": "µg/mL"}, {"measurement": "Meropenem MIC in combination", "setting": "strain 18-J51-052", "value": 4, "unit": "µg/mL"}]}]}
